Patent publication US20260070929A1, “METHODS AND COMPOSITIONS FOR MODULATING KRAS(G12D)” (Ranok Therapeutics (Hangzhou) Co. LTD., priority 2022, published 2026)
pEC50, pIC50: −log10 of the molar value. Like-named read-outs stand apart in the source and are kept apart here.

What was measured:
[1] = tested on: ASPC1 pancreatic adenocarcinoma cells [homozygous G12D]; assay: Cancer cell line proliferation (CellTiter-Glo), ASPC1; type: cell-based; conditions: 72 hr treatment, read-out: ASPC-1 CTG (EC50)
Experimental: The following cancer cell lines were employed: AGS gastric carcinoma [heterozygous G12D](ATCC, CRL-1739); A-427 lung carcinoma [heterozygous G12D](ATCC, HTB-53); ASPC1 pancreatic adenocarcinoma [homozygous G12D](ATCC, CRL-1682) and SW1990 pancreatic adenocarcinoma [homozygous G12D](ATCC CRL-2172). Cell lines were cultured essentially according to ATCC recommendations.
AGS, A-427, ASPC1, SW1990, and GP2D cells were plated in 96-well tissue culture plates at 4,000 cells/well and incubated at 37° C./5% CO2 for 72 hr in 100 μl of media. 3-fold serial dilutions of each test compound were prepared ranging from 20 μM to 1.02 nM. Each cell line was then treated with test compounds at various concentrations with a final concentration of 0.5% DMSO/well, and then incubated at 37° C./5% CO2 for 72 hr. 100 µl of CellTiter-Glo® Reagent (Promega Corporation, Madison, WI) was added to each well and processed according manufacturer's protocol. Results were analyzed and EC50 values were calculated in GraphPad 7 software.

[2] = tested on: AGS gastric carcinoma cells [heterozygous G12D]; assay: Cancer cell line proliferation (CellTiter-Glo), AGS; type: cell-based; conditions: 72 hr treatment, read-out: AGS CTG (EC50)
Outline: (§1)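 EC50 values come from CellTiter-Glo viability measured after 72 hr compound treatment at 37° C./5% CO2 with 0.5% final DMSO. Plating was at 4,000 cells/well with 72 hr growth before dosing, and compounds were serially diluted 3-fold from 20 μM down to 1.02 nM.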

[3] = target: T1, KRAS(G12D)/SOS1 (Homo sapiens, UniProt P01116, G12D); assay: KRAS(G12D)/SOS1 homogeneous time-resolved fluorescence (HTRF) assay; type: binding; conditions: absence of GTP; 4° C., 3 hr
T1 construct: purchased Cisbio 63ADK000CB17PEH
Outline: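 Disruption of the KRAS(G12D)/SOS1 pairing, in the absence of GTP, was read by time-resolved FRET after a 3 hr sealed incubation at 4 °C. Test compounds spanned 20 µM down to 1.02 nM in 3-fold steps. IC50 values correspond to half-maximal inhibition.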

[4] = tested on: A-427 lung carcinoma cells [heterozygous G12D]; assay: Cancer cell line proliferation (CellTiter-Glo), A-427; type: cell-based; conditions: A-427 cells, 72 hr treatment, read-out: A427 CTG (EC50)
Outline: as §1

T1 sequence (P01116 1-188 isoform P01116-2 G12D): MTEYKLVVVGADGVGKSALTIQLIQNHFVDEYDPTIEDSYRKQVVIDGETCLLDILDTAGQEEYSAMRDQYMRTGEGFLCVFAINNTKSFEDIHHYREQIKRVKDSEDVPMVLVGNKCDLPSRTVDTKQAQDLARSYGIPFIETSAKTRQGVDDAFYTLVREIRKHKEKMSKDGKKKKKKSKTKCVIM

SMILES	pEC50 ([1]; Homo sapiens, ASPC1, 72 h)	pEC50 ([2]; Homo sapiens)	pIC50 [3]	pEC50 ([4]; Homo sapiens)	pEC50 [1]	pEC50 [2]	pEC50 [4]
CC(C)c1cc(-c2nnc(O)n2-c2ccc(CN3CCN([C@H]4C[C@@H](COc5nc(N6CC7CCC(C6)N7)c6cnc(-c7cccc8ccccc78)c(F)c6n5)N(C)C4)CC3)cc2)c(O)cc1O [Compound 30]	< 6.00	6.00 to 7.00	< 6.00	6.00 to 7.00	–	–	–
CCNC(=O)c1nnc(-c2cc(C(C)C)c(O)cc2O)n1-c1ccc(CN2CCN([C@H]3C[C@@H](COc4nc(N5CC6CCC(C5)N6)c5cnc(-c6cc(O)cc7ccccc67)c(F)c5n4)N(C)C3)CC2)cc1 [Compound 31]	< 6.00	6.00 to 7.00	> 7.00	6.00 to 7.00	–	–	–
CC(C)c1cc(-c2nnc(O)n2-c2ccc(CN3CCC(C(=O)C4CCN([C@H]5C[C@@H](COc6nc(N7CC8CCC(C7)N8)c7cnc(-c8cc(O)cc9ccccc89)c(F)c7n6)N(C)C5)CC4)CC3)cc2)c(O)cc1O [Compound 32]	< 6.00	6.00 to 7.00	> 7.00	6.00 to 7.00	–	–	–
CC(C)c1cc(-c2nnc(O)n2-c2ccc(CN3CCN([C@H]4C[C@@H](COc5nc(N6CC7CCC(C6)N7)c6cnc(-c7cc(O)cc8ccccc78)c(F)c6n5)N(C)C4)CC3)cc2)c(O)cc1O [Compound 33]	< 6.00	6.00 to 7.00	> 7.00	< 6.00	–	–	–
CCNC(=O)c1nnc(-c2cc(C(C)C)c(O)cc2O)n1-c1ccc(CN2CCN([C@H]3C[C@@H](COc4nc(N5CC6CCC(C5)N6)c5cnc(-c6cccc7ccccc67)c(F)c5n4)N(C)C3)CC2)cc1 [Compound 34]	6.00 to 7.00	> 7.00	< 6.00	6.00 to 7.00	–	–	–
C#Cc1cccc2cccc(-c3ncc4c(N5CC6CCC(C5)N6)nc(OC[C@@H]5C[C@H](N6CCN(Cc7ccc(-n8c(C(=O)NCC)nnc8-c8cc(C(C)C)c(O)cc8O)cc7)CC6)CN5C)nc4c3F)c12 [Compound 36]	6.00 to 7.00	> 7.00	> 7.00	6.00 to 7.00	–	–	–
Cc1cccc2cccc(-c3ncc4c(N5CC6CCC(C5)N6)nc(OC[C@@H]5C[C@H](N6CCN(Cc7ccc8c(c7)CN(C(=O)c7cc(C(C)C)c(O)cc7O)C8)CC6)CN5C)nc4c3F)c12 [Compound 37]	–	6.00 to 7.00	> 7.00	6.00 to 7.00	6.00 to 7.00	–	–
CCNC(=O)c1nnc(-c2cc(C(C)C)c(O)cc2O)n1-c1ccc(CN2CCC(C(=O)N3CCN([C@H]4C[C@@H](COc5nc(N6CC7CCC(C6)N7)c6cnc(-c7cc(O)cc8ccccc78)c(F)c6n5)N(C)C4)CC3)CC2)cc1 [Compound 38]	6.00 to 7.00	6.00 to 7.00	> 7.00	6.00 to 7.00	–	–	–
C#Cc1cccc2cccc(-c3ncc4c(N5CC6CCC(C5)N6)nc(OC[C@@H]5CC[C@H](CN6CCN(Cc7ccc8c(c7)CN(C(=O)c7cc(C(C)C)c(O)cc7O)C8)CC6)N5C)nc4c3F)c12 [Compound 39]	< 6.00	6.00 to 7.00	> 7.00	6.00 to 7.00	–	–	–
CCNC(=O)c1nnc(-c2cc(C(C)C)c(O)cc2O)n1-c1ccc(CN(C)[C@@H]2CN3CCC[C@]3(COc3nc(N4CC5CCC(C4)N5)c4cnc(-c5cc(O)cc6ccccc56)c(F)c4n3)C2)cc1 [Compound 40]	< 6.00	6.00 to 7.00	> 7.00	6.00 to 7.00	–	–	–
CCNC(=O)c1nnc(-c2cc(C(C)C)c(O)cc2O)n1-c1ccc(CN(C)[C@@H]2CN3CCC[C@@]3(COc3nc(N4CC5CCC(C4)N5)c4cnc(-c5cc(O)cc6ccccc56)c(F)c4n3)C2)cc1 [Compound 41]	6.00 to 7.00	6.00 to 7.00	> 7.00	< 6.00	–	–	–
CC(C)c1cc(-c2nnc(O)n2-c2ccc(CN(C)[C@@H]3CN4CCC[C@]4(COc4nc(N5CC6CCC(C5)N6)c5cnc(-c6cc(O)cc7ccccc67)c(F)c5n4)C3)cc2)c(O)cc1O [Compound 42]	< 6.00	< 6.00	> 7.00	< 6.00	–	–	–
CC(C)c1cc(-c2nnc(O)n2-c2ccc(CN(C)[C@@H]3CN4CCC[C@]4(COc4nc(N5CC6CCC(C5)N6)c5cnc(-c6cc(O)cc7ccccc67)c(F)c5n4)C3)cc2)c(O)cc1O [Compound 43]	–	–	> 7.00	–	< 6.00	< 6.00	< 6.00
CC(C)c1cc(C(=O)N2Cc3ccc(CN(C)[C@H]4CN5CCC[C@@]5(COc5nc(N6CC7CCC(C6)N7)c6cnc(-c7cc(O)cc8ccccc78)c(F)c6n5)C4)cc3C2)c(O)cc1O [Compound 44]	< 6.00	6.00 to 7.00	> 7.00	6.00 to 7.00	–	–	–
CC(C)c1cc(C(=O)N2Cc3ccc(CN(C)[C@H]4CN5CCC[C@]5(COc5nc(N6CC7CCC(C6)N7)c6cnc(-c7cc(O)cc8ccccc78)c(F)c6n5)C4)cc3C2)c(O)cc1O [Compound 45]	< 6.00	6.00 to 7.00	6.00 to 7.00	6.00 to 7.00	–	–	–
CC(C)c1cc(C(=O)N2Cc3ccc(CN4CCC(C(=O)N(C)[C@H]5CN6CCC[C@@]6(COc6nc(N7CC8CCC(C7)N8)c7cnc(-c8cc(O)cc9ccccc89)c(F)c7n6)C5)CC4)cc3C2)c(O)cc1O [Compound 49]	< 6.00	6.00 to 7.00	> 7.00	6.00 to 7.00	–	–	–
CC(C)c1cc(C(=O)N2Cc3ccc(CN4CCC(C(=O)N(C)[C@H]5CN6CCC[C@]6(COc6nc(N7CC8CCC(C7)N8)c7cnc(-c8cc(O)cc9ccccc89)c(F)c7n6)C5)CC4)cc3C2)c(O)cc1O [Compound 50]	6.00 to 7.00	6.00 to 7.00	> 7.00	6.00 to 7.00	–	–	–
Cc1cccc(-c2ncc3c(N4CC5CCC(C4)N5)nc(OC[C@@H]4C[C@H](N5CCN(Cc6ccc(-n7c(O)nnc7-c7cc(C(C)C)c(O)cc7O)cc6)CC5)CN4C)nc3c2F)c1C [Compound 52]	< 6.00	6.00 to 7.00	< 6.00	6.00 to 7.00	–	–	–
CCNC(=O)c1nnc(-c2cc(C(C)C)c(O)cc2O)n1-c1ccc(CN2CCN([C@H]3C[C@@H](COc4nc(N5CC6CCC(C5)N6)c5cnc(-c6cccc(C)c6C)c(F)c5n4)N(C)C3)CC2)cc1 [Compound 53]	6.00 to 7.00	> 7.00	> 7.00	6.00 to 7.00	–	–	–
CCNC(=O)c1nnc(-c2cc(C(C)C)c(O)cc2O)n1-c1ccc(CN2CCN([C@H]3C[C@@H](COc4nc(N5CC6CCC(C5)N6)c5cnc(-c6cccc7cccc(C#N)c67)c(F)c5n4)N(C)C3)CC2)cc1 [Compound 59]	6.00 to 7.00	> 7.00	< 6.00	6.00 to 7.00	–	–	–
CCNC(=O)c1nnc(-c2cc(C(C)C)c(O)cc2O)n1-c1ccc(CN2CCN([C@H]3C[C@@H](COc4nc(N5CC6CCC(C5)N6)c5cnc(-c6ccccc6C(F)(F)F)c(F)c5n4)N(C)C3)CC2)cc1 [Compound 60]	6.00 to 7.00	> 7.00	< 6.00	6.00 to 7.00	–	–	–
Cc1c(F)cccc1-c1ncc2c(N3CC4CCC(C3)N4)nc(OC[C@@H]3C[C@H](N4CCN(Cc5ccc6c(c5)CN(C(=O)c5cc(C(C)C)c(O)cc5O)C6)CC4)CN3C)nc2c1F [Compound 61]	6.00 to 7.00	6.00 to 7.00	< 6.00	6.00 to 7.00	–	–	–
CCNC(=O)c1nnc(-c2cc(C(C)C)c(O)cc2O)n1-c1ccc(CN2CCN([C@H]3C[C@@H](COc4nc(N5CC6CCC(C5)N6)c5cnc(-c6cccc(F)c6C)c(F)c5n4)N(C)C3)CC2)cc1 [Compound 62]	6.00 to 7.00	> 7.00	< 6.00	> 7.00	–	–	–
